In publication PMC5218480 (PLoS ONE, 2017):

System: MV-4-11 cells
Test: Gene expression microarray analysis (Affymetrix PrimeView) and GSEA
Assay type: cell-based, human
Parameters: RFU PODN (11730768_x_at) / Fold change /veh PODN (11730768_x_at) / RFU LINC00158 (11744669_a_at) / Fold change /veh LINC00158 (11744669_a_at) / RFU DUSP10 (11751237_a_at) / Fold change /veh DUSP10 (11751237_a_at) / RFU ID3 (11757404_x_at) / Fold change /veh ID3 (11757404_x_at) / RFU PLEKHG5 (11737974_s_at) / Fold change /veh PLEKHG5 (11737974_s_at) / RFU LRRC4B (11730491_at) / Fold change /veh LRRC4B (11730491_at) / RFU GIMAP4 (11747438_a_at) / Fold change /veh GIMAP4 (11747438_a_at) / RFU KRT8 (11758183_x_at) / Fold change /veh KRT8 (11758183_x_at) / RFU CNN1 (11734310_a_at) / Fold change /veh CNN1 (11734310_a_at) / RFU VPS37D (11726825_at) / Fold change /veh VPS37D (11726825_at) / RFU C10orf10 (11716522_x_at) / Fold change /veh C10orf10 (11716522_x_at) / RFU KIR2DL2 /// KIR2DL4 /// KIR2DL5A /// KIR2DL5B /// KIR2DS1 /// KIR2DS2 /// KIR2DS3 /// KIR2DS4 /// KIR3DL3 /// KIR3DL3 /// KIR3DS1 (11738374_at) / Fold change /veh KIR2DL2 /// KIR2DL4 /// KIR2DL5A /// KIR2DL5B /// KIR2DS1 /// KIR2DS2 /// KIR2DS3 /// KIR2DS4 /// KIR3DL3 /// KIR3DL3 /// KIR3DS1 (11738374_at) / RFU C1QL1 (11718748_at) / Fold change /veh C1QL1 (11718748_at) / RFU TMPRSS4 (11747572_a_at) / Fold change /veh TMPRSS4 (11747572_a_at) / RFU HAMP (11756126_x_at) / Fold change /veh HAMP (11756126_x_at) / RFU RNFT2 (11725882_a_at) / Fold change /veh RNFT2 (11725882_a_at) / RFU NR4A2 (11747474_a_at) / Fold change /veh NR4A2 (11747474_a_at) / RFU ABCC12 (11746883_a_at) / Fold change /veh ABCC12 (11746883_a_at) / RFU TMEM136 (11760407_x_at) / Fold change /veh TMEM136 (11760407_x_at) / RFU CLDN22 /// WWC2 (11732394_at) / Fold change /veh CLDN22 /// WWC2 (11732394_at) / RFU HLA-DPB1 (11760878_x_at) / Fold change /veh HLA-DPB1 (11760878_x_at) / RFU SPINT1 (11716480_a_at) / Fold change /veh SPINT1 (11716480_a_at) / RFU GAP43 (11754022_s_at) / Fold change /veh GAP43 (11754022_s_at) / RFU A4GNT (11735810_at) / Fold change /veh A4GNT (11735810_at) / RFU PRB3 (11715151_x_at) / Fold change /veh PRB3 (11715151_x_at) / RFU TUBB4B (11761932_at) / Fold change /veh TUBB4B (11761932_at) / RFU CAPN14 (11732068_a_at) / Fold change /veh CAPN14 (11732068_a_at) / RFU TMCC2 (11721928_a_at) / Fold change /veh TMCC2 (11721928_a_at) / RFU IRGQ (11745062_a_at) / Fold change /veh IRGQ (11745062_a_at) / RFU FAM174B (11720279_a_at) / Fold change /veh FAM174B (11720279_a_at) / RFU TMPRSS4 (11748680_a_at) / Fold change /veh TMPRSS4 (11748680_a_at) / RFU FAM212B (11763350_a_at) / Fold change /veh FAM212B (11763350_a_at) / RFU PLEKHG5 (11743358_a_at) / Fold change /veh PLEKHG5 (11743358_a_at) / RFU ZSCAN30 (11745921_a_at) / Fold change /veh ZSCAN30 (11745921_a_at) / RFU CMKLR1 (11741424_a_at) / Fold change /veh CMKLR1 (11741424_a_at) / RFU LOC101060620 /// MAPK8IP1 (11723275_at) / Fold change /veh LOC101060620 /// MAPK8IP1 (11723275_at) / RFU SPTSSB (11747773_x_at) / Fold change /veh SPTSSB (11747773_x_at) / RFU PRSS12 (11739890_at) / Fold change /veh PRSS12 (11739890_at) / RFU BIN1 (11741810_x_at) / Fold change /veh BIN1 (11741810_x_at) / RFU WNT11 (11732464_a_at) / Fold change /veh WNT11 (11732464_a_at) / RFU C10orf10 (11716521_a_at) / Fold change /veh C10orf10 (11716521_a_at) / RFU C5orf56 (11738089_at) / Fold change /veh C5orf56 (11738089_at) / RFU CYB561 (11721691_x_at) / Fold change /veh CYB561 (11721691_x_at) / RFU ANKRD19P (11752326_a_at) / Fold change /veh ANKRD19P (11752326_a_at) / RFU OR2T12 /// OR2T33 /// OR2T8 (11738714_s_at) / Fold change /veh OR2T12 /// OR2T33 /// OR2T8 (11738714_s_at) / RFU VCAN (11748164_a_at) / Fold change /veh VCAN (11748164_a_at) / RFU JSRP1 (11732532_at) / Fold change /veh JSRP1 (11732532_at) / RFU KRTAP10-11 (11738290_x_at) / Fold change /veh KRTAP10-11 (11738290_x_at) / RFU MYO3A (11730013_a_at) / Fold change /veh MYO3A (11730013_a_at) / RFU EBF3 (11725865_a_at) / Fold change /veh EBF3 (11725865_a_at) / RFU CAMK2N1 (11719241_x_at) / Fold change /veh CAMK2N1 (11719241_x_at) / RFU C5orf56 (11738088_a_at) / Fold change /veh C5orf56 (11738088_a_at) / RFU OLFML3 (11715873_a_at) / Fold change /veh OLFML3 (11715873_a_at) / RFU LOC100653217 /// NTM (11731650_a_at) / Fold change /veh LOC100653217 /// NTM (11731650_a_at) / RFU MAPK11 (11762145_a_at) / Fold change /veh MAPK11 (11762145_a_at) / RFU FIZ1 (11724087_x_at) / Fold change /veh FIZ1 (11724087_x_at) / RFU OASL (11726364_x_at) / Fold change /veh OASL (11726364_x_at) / RFU SOX15 (11748057_x_at) / Fold change /veh SOX15 (11748057_x_at) / RFU CD79A (11719716_a_at) / Fold change /veh CD79A (11719716_a_at) / RFU HIST1H1D (11736915_at) / Fold change /veh HIST1H1D (11736915_at) / RFU CASKIN2 (11723855_a_at) / Fold change /veh CASKIN2 (11723855_a_at) / RFU LOC730098 (11760151_x_at) / Fold change /veh LOC730098 (11760151_x_at) / RFU OR4N2 (11742367_at) / Fold change /veh OR4N2 (11742367_at) / RFU PRRT2 (11749266_a_at) / Fold change /veh PRRT2 (11749266_a_at) / RFU SNX32 (11753110_a_at) / Fold change /veh SNX32 (11753110_a_at) / RFU CDHR5 (11726645_a_at) / Fold change /veh CDHR5 (11726645_a_at) / RFU RCAN1 (11760418_a_at) / Fold change /veh RCAN1 (11760418_a_at) / RFU FAM167A (11723789_a_at) / Fold change /veh FAM167A (11723789_a_at) / RFU FAM26E (11764081_at) / Fold change /veh FAM26E (11764081_at) / RFU ISYNA1 (11749810_s_at) / Fold change /veh ISYNA1 (11749810_s_at) / RFU ACY1 (11761880_at) / Fold change /veh ACY1 (11761880_at) / RFU 11764098_at / Fold change /veh 11764098_at / RFU SAMD14 (11745864_x_at) / Fold change /veh SAMD14 (11745864_x_at) / RFU NPB (11741838_a_at) / Fold change /veh NPB (11741838_a_at) / RFU TMPRSS6 (11731388_a_at) / Fold change /veh TMPRSS6 (11731388_a_at) / RFU KRTAP10-2 (11738614_at) / Fold change /veh KRTAP10-2 (11738614_at) / RFU ARHGAP8 /// PRR5-ARHGAP8 (11727945_x_at) / Fold change /veh ARHGAP8 /// PRR5-ARHGAP8 (11727945_x_at) / RFU KRTAP5-7 /// NADSYN1 (11734609_at) / Fold change /veh KRTAP5-7 /// NADSYN1 (11734609_at) / RFU RASL12 (11751679_a_at) / Fold change /veh RASL12 (11751679_a_at) / RFU CDKN2B (11736163_a_at) / Fold change /veh CDKN2B (11736163_a_at) / RFU PRF1 (11729649_at) / Fold change /veh PRF1 (11729649_at) / RFU, ZNF638 /// ZNF638-IT1 / Fold change vs veh, ZNF638 /// ZNF638-IT1 / RFU, PANK3 / Fold change vs veh, PANK3 / RFU, SH3YL1 / Fold change vs veh, SH3YL1 / RFU, ZEB2 / Fold change vs veh, ZEB2 / RFU, NRIP1 / Fold change vs veh, NRIP1 / RFU, PTTG1IP / Fold change vs veh, PTTG1IP / RFU, CAPN2 / Fold change vs veh, CAPN2 / RFU, MED14 / Fold change vs veh, MED14 / RFU, SNORA58 / Fold change vs veh, SNORA58 / RFU, C1orf63 / Fold change vs veh, C1orf63 / RFU, LRRFIP1 / Fold change vs veh, LRRFIP1 / RFU, NDUFAF7 / Fold change vs veh, NDUFAF7 / RFU, SLC12A2 / Fold change vs veh, SLC12A2 / RFU, IBTK / Fold change vs veh, IBTK / RFU, ESF1 / Fold change vs veh, ESF1 / Fold change vs veh, TMEM50B / RFU, TAOK1 / Fold change vs veh, TAOK1 / RFU, ACBD3 / Fold change vs veh, ACBD3 / RFU, TMA16 / Fold change vs veh, TMA16 / RFU, RWDD3 / Fold change vs veh, RWDD3 / RFU, BCAT1 / Fold change vs veh, BCAT1 / RFU, EDEM3 / Fold change vs veh, EDEM3 / RFU, TMEM33 / Fold change vs veh, TMEM33 / RFU, WDR75 / Fold change vs veh, WDR75 / RFU, AHCTF1 / Fold change vs veh, AHCTF1 / RFU, TFRC / Fold change vs veh, TFRC / RFU, ZDHHC17 / Fold change vs veh, ZDHHC17 / RFU, NOM1 / Fold change vs veh, NOM1 / RFU, ARL8B / Fold change vs veh, ARL8B / RFU, ZBTB11 / Fold change vs veh, ZBTB11 / RFU, TAMM41 / Fold change vs veh, TAMM41 / RFU, KIAA1704 /// LOC100996395 / Fold change vs veh, KIAA1704 /// LOC100996395 / RFU, ING1 / Fold change vs veh, ING1 / RFU, TRMT61B / Fold change vs veh, TRMT61B / RFU, FUBP3 / Fold change vs veh, FUBP3 / RFU, TP53 / Fold change vs veh, TP53 / RFU, TNKS2 / Fold change vs veh, TNKS2 / RFU, ZFP14 / Fold change vs veh, ZFP14 / RFU, ACTR2 / Fold change vs veh, ACTR2 / RFU, PPP3R1 / Fold change vs veh, PPP3R1 / RFU, PIK3R1 / Fold change vs veh, PIK3R1 / RFU, HNRNPA1 / Fold change vs veh, HNRNPA1 / RFU, RNF170 / Fold change vs veh, RNF170 / RFU, ZNF28 / Fold change vs veh, ZNF28 / RFU, RNGTT / Fold change vs veh, RNGTT / RFU, OGT / Fold change vs veh, OGT / RFU, BRD1 / Fold change vs veh, BRD1 / RFU, MARS / Fold change vs veh, MARS / RFU, ZNF655 / Fold change vs veh, ZNF655 / RFU, FAHD1 / Fold change vs veh, FAHD1 / RFU, BDP1 / Fold change vs veh, BDP1 / RFU, LRRCC1 / Fold change vs veh, LRRCC1 / RFU, ARID1A / Fold change vs veh, ARID1A / RFU, ZNF146 / Fold change vs veh, ZNF146 / RFU, ZNF330 / Fold change vs veh, ZNF330 / RFU, GPN3 / Fold change vs veh, GPN3 / RFU, C9orf123 / Fold change vs veh, C9orf123 / RFU, N4BP2L2 / Fold change vs veh, N4BP2L2 / RFU, ARFIP1 / Fold change vs veh, ARFIP1 / RFU, FAM179B / Fold change vs veh, FAM179B / RFU, BCL10 / Fold change vs veh, BCL10 / RFU, UHRF1BP1L / Fold change vs veh, UHRF1BP1L / RFU, BET1 / Fold change vs veh, BET1 / RFU, CNOT2 / Fold change vs veh, CNOT2 / RFU, ZNF268 / Fold change vs veh, ZNF268 / Fold change vs veh, ZNF507 / RFU, DGCR2 / Fold change vs veh, DGCR2 / RFU, WDSUB1 / Fold change vs veh, WDSUB1 / Fold change vs veh, HSP90B1 /// MIR3652 / RFU, ADSS / Fold change vs veh, ADSS / RFU, GK / Fold change vs veh, GK / RFU, ZNF148 / Fold change vs veh, ZNF148 / RFU, TAF9 / Fold change vs veh, TAF9 / RFU, SLC1A5 / Fold change vs veh, SLC1A5 / RFU, SLMO2 / Fold change vs veh, SLMO2 / RFU, ABCC4 / Fold change vs veh, ABCC4 / RFU, LOC101060439 /// RAP1B / Fold change vs veh, LOC101060439 /// RAP1B / RFU, RFX7 / Fold change vs veh, RFX7 / RFU, GTPBP10 / Fold change vs veh, GTPBP10 / RFU, CNEP1R1 / Fold change vs veh, CNEP1R1 / RFU, BIVM-ERCC5 /// ERCC5 / Fold change vs veh, BIVM-ERCC5 /// ERCC5 / RFU, ILF3 / Fold change vs veh, ILF3 / RFU 11762660_at / Fold change /veh 11762660_at / RFU VCAN (11757783_s_at) / Fold change /veh VCAN (11757783_s_at) / RFU DDX43 (11728927_at) / Fold change /veh DDX43 (11728927_at) / RFU KRT8 (11758188_x_at) / Fold change /veh KRT8 (11758188_x_at) / RFU NKD1 (11759106_at) / Fold change /veh NKD1 (11759106_at) / RFU SRD5A1 (11742802_a_at) / Fold change /veh SRD5A1 (11742802_a_at) / RFU TPSAB1 /// TPSB2 (11721975_s_at) / Fold change /veh TPSAB1 /// TPSB2 (11721975_s_at) / RFU GSTM3 (11746129_a_at) / Fold change /veh GSTM3 (11746129_a_at) / RFU IL23R (11737362_x_at) / Fold change /veh IL23R (11737362_x_at) / RFU TMEM51 (11727254_a_at) / Fold change /veh TMEM51 (11727254_a_at) / RFU PIWIL2 (11732686_x_at) / Fold change /veh PIWIL2 (11732686_x_at) / RFU ORM1 (11744905_x_at) / Fold change /veh ORM1 (11744905_x_at) / RFU CCDC152 (11743942_at) / Fold change /veh CCDC152 (11743942_at) / RFU ECM1 (11717891_a_at) / Fold change /veh ECM1 (11717891_a_at) / RFU IL23R (11748794_a_at) / Fold change /veh IL23R (11748794_a_at) / RFU TNFAIP8L3 (11732012_x_at) / Fold change /veh TNFAIP8L3 (11732012_x_at) / RFU MBOAT4 (11741988_at) / Fold change /veh MBOAT4 (11741988_at) / RFU 11764193_at / Fold change /veh 11764193_at / RFU TMEM53 (11763286_at) / Fold change /veh TMEM53 (11763286_at) / RFU MAGEB2 (11727129_at) / Fold change /veh MAGEB2 (11727129_at) / RFU TMEM200A (11744735_a_at) / Fold change /veh TMEM200A (11744735_a_at) / RFU CCDC152 (11751479_a_at) / Fold change /veh CCDC152 (11751479_a_at) / RFU FAM211A (11726209_a_at) / Fold change /veh FAM211A (11726209_a_at) / RFU RGS16 (11746705_a_at) / Fold change /veh RGS16 (11746705_a_at) / RFU VCAN (11755009_s_at) / Fold change /veh VCAN (11755009_s_at) / RFU RHOB (11743442_s_at) / Fold change /veh RHOB (11743442_s_at) / RFU RGS16 (11720943_a_at) / Fold change /veh RGS16 (11720943_a_at) / RFU RGS16 (11720944_at) / Fold change /veh RGS16 (11720944_at) / RFU, VPS4B / Fold change vs veh, VPS4B / RFU, CREB1 / Fold change vs veh, CREB1 / RFU, DNAJC13 / Fold change vs veh, DNAJC13 / RFU, GNAQ / Fold change vs veh, GNAQ / RFU, CDK5R1 / Fold change vs veh, CDK5R1 / RFU, ZRANB3 / Fold change vs veh, ZRANB3 / RFU, CUL4A / Fold change vs veh, CUL4A / RFU, CCNY / Fold change vs veh, CCNY / RFU, UFL1 / Fold change vs veh, UFL1 / RFU, COG3 / Fold change vs veh, COG3 / RFU, DIAPH2 / Fold change vs veh, DIAPH2 / RFU, SKA2 / Fold change vs veh, SKA2 / RFU, AFF3 / Fold change vs veh, AFF3 / RFU, LMF1 / Fold change vs veh, LMF1 / RFU, IPO11 / Fold change vs veh, IPO11 / RFU, DFFB / Fold change vs veh, DFFB / RFU, FOXP1 / Fold change vs veh, FOXP1 / RFU, CARD8 / Fold change vs veh, CARD8 / RFU, STRN3 / Fold change vs veh, STRN3 / RFU, ADK / Fold change vs veh, ADK / RFU, RASSF2 / Fold change vs veh, RASSF2 / RFU, WIPF1 / Fold change vs veh, WIPF1 / RFU, LARP1B / Fold change vs veh, LARP1B / RFU, RASA1 / Fold change vs veh, RASA1 / RFU, RB1 / Fold change vs veh, RB1 / RFU, PPFIA1 / Fold change vs veh, PPFIA1 / RFU, MAT2A / Fold change vs veh, MAT2A / RFU, CCT5 / Fold change vs veh, CCT5 / RFU, WDR92 / Fold change vs veh, WDR92 / RFU, CUX1 / Fold change vs veh, CUX1 / RFU, TTC7A / Fold change vs veh, TTC7A / RFU, TMEM135 / Fold change vs veh, TMEM135 / RFU, DEPTOR / Fold change vs veh, DEPTOR / RFU, CPM / Fold change vs veh, CPM / RFU, DNAJB6 / Fold change vs veh, DNAJB6 / RFU, CACNA2D3 / Fold change vs veh, CACNA2D3 / RFU, DTX4 / Fold change vs veh, DTX4 / RFU, TFCP2 / Fold change vs veh, TFCP2 / RFU, GMCL1 /// GMCL1P1 / Fold change vs veh, GMCL1 /// GMCL1P1 / RFU, AEBP2 / Fold change vs veh, AEBP2 / RFU, SNHG1 /// SNORD22 /// SNORD25 /// SNORD26 /// SNORD27 /// SNORD28 /// SNORD29 /// SNORD31 / Fold change vs veh, SNHG1 /// SNORD22 /// SNORD25 /// SNORD26 /// SNORD27 /// SNORD28 /// SNORD29 /// SNORD31 / Fold change (Aza/veh), C12orf56 (ProbeSet 11735607_a_at) / Fold change (ACY-1035/veh), C12orf56 (ProbeSet 11735607_a_at) / Fold change (Aza/veh), FGFR1OP (ProbeSet 11751329_s_at) / Fold change (ACY-1035/veh), FGFR1OP (ProbeSet 11751329_s_at) / Fold change (Aza/veh), VPS36 (ProbeSet 11739960_a_at) / Fold change (ACY-1035/veh), VPS36 (ProbeSet 11739960_a_at) / RFU SYPL1 (11715823_x_at) / Fold change /veh SYPL1 (11715823_x_at) / RFU IGFBP7 (11715501_s_at) / Fold change /veh IGFBP7 (11715501_s_at) / RFU REEP3 (11722064_at) / Fold change /veh REEP3 (11722064_at) / RFU IGLL1 (11728026_x_at) / Fold change /veh IGLL1 (11728026_x_at): dose or concentration left out as unconfirmed
Conditions: ProbeSet 11719632_a_at; LIST B

In the case of `Nc1ccc(-c2cccs2)cc1NC(=O)c1ccc2c(c1)cc(C1CC1)n2CCN1CCOCC1` [ACY-1035], the “Fold change vs veh, ABCC4” value was 0.87.
